Test system: S1P1 receptor
Test: Immunosuppressive effect: Western blot of S1P1 receptor in LLC cells
Assay type: cell-based, human
Conditions: incubation for discrete times (3 hours, 12 hours)
Description: To this end, LLC cells (5×10^5 per well) were seeded and cultured on 12-well plates in RPMI-1640 medium, 10% FBS, at 37° C. in a humidified atmosphere containing 5% CO2, adding to the culture the various test compounds. Incubation was conducted for discrete times, at the end of which the cells were lysed to submit the protein content to Western blot analysis with antibodies that specifically recognize the S1P1 receptor.

CCCCCCCCc1ccc(CCC(N)(CO)CO)cc1.Cl [FTY720, 2-amino-2[2-(4-octylphenyl)ethyl]propane-1,3-diol hydrochloride]
S1P1 receptor expression (Western blot, FIG. 1): induces a rapid decrease of S1P1 receptor

From patent US11345673B2, “1-phenylpropanone compounds and use thereof” (UNIVERSITA' DEGLI STUDI DI PADOVA, priority 2016, dated 2022)
